Test results reported in patent US5512564A, “Tricyclic thiazole and oxazole derivatives and pharmaceutical agents containing them” (priority 1991, dated 1996).

Key:
purified RT from HIV-1 = molecular target: T1, purified RT from HIV-1 (Human immunodeficiency virus type 1 group M subtype B, UniProt P04585); assay: Inhibition of Reverse Transcriptase (3H-thymidine-5'-triphosphate incorporation, 18mer oligonucleotide primer); type: biochemical; settings: concentration causing 50% inhibition of the RT activity; HIV-1 RT expressed in E. coli
T1 construct: purified RT from HIV-1; made in house; host or cells: E. coli
Description: The screening test system comprises the purified RT from HIV-1 which was expressed by genetic engineering methods in E. coli as well as the components of the initiation complex and site complementary 18mer oligonucleotide as the primer. The ^3 H!-thymidine-5'-triphosphate incorporation was measured by counting in a β counter. The IC50 value is given in the following table for the investigated compounds. This value corresponds to that concentration of the test substance which causes a 50% inhibition of the RT activity.

[1] = treatment of AIDS; Hirsch, M. S. (1988); cited from earlier work

SMILES	IC50 (purified RT from HIV-1) [µM]	therapeutic range (in words) [1]
Cc1ccnc(C23SCCN2C(=O)c2cccnc23)c1 (stereo not drawn) [Example 8, 3a-(4-Methyl-Pyridin-2-Yl)-2,3a-Dihydro-1H-3-Thia-4,8a-Diaza-Cyclopenta a!I nden-8-One]	4.6	–
Cc1cccc(C23SCCN2C(=O)c2cccnc23)n1 (stereo not drawn) [Example 10, 3a-(6-Methyl-Pyridin-2-Yl)-2,3a-Dihydro-1H-3-Thia-4,8a-Diaza-Cyclopenta a!I nden-8-One]	6.6	–
O=C1c2cccnc2C2(c3ccccn3)SCCN12 (stereo not drawn) [Example 9, 3a-Pyridin-2-Yl-2,3a-Dihydro-1H-3-Thia-4,8a-Diaza-Cyclopenta a!Inden-8-One]	23	–
O=C1c2cccnc2C2(c3ccccc3)SCCN12 (stereo not drawn) [Example 2, 3a-Phenyl-2,3a-Dihydro-1H-3-Thia-4,8a-Diaza-Cyclopenta a!Inden-8-One]	3.3	–
Cc1cn([C@H]2C[C@H](N=[N+]=[N-])[C@@H](CO)O2)c(=O)[nH]c1=O [AZT, 3'-azido-3'-deoxythymidine]	–	very narrow therapeutic range
Cc1cc(C)nc(C23SCCN2C(=O)c2cccnc23)c1 (stereo not drawn) [Example 11, 3a-(4,6-Dimethyl-Pyridin-2-Yl)2,3a-Dihydro-1H-3-Thia-4,8a-Diaza-Cyclopenta a!Inden-8-One]	3.9	–
Cc1cccc(C23SCCN2C(=O)c2cccnc23)c1 (stereo not drawn) [Example 13, 3a-m-Tolyl-2,3a-Dihydro-1H-3-Thia-4,8a-Diaza-Cyclopenta a!Inden-8-One]	4	–
Cc1cc(C)cc(C23SCCN2C(=O)c2nccnc23)c1 (stereo not drawn) [Example 5, 3a-(3,5-Dimethyl-Phenyl)-2,3a-Dihydro-1H-3-Thia-4,7,8a-Triaza-Cyclopenta a! Inden-8-One]	40	–
O=C1c2ccncc2C2(c3ccccc3)SCCN12 (stereo not drawn) [Example 7, 3a-Phenyl-2,3a-Dihydro-1H-3-Thia-5,8a-Diaza-Cyclopenta a!Inden-8-One]	17	–
